Assay results published in PubChem BioAssay (NCI).
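A five-concentration, 48-hour dose response in 96-well plates underlies each endpoint, interpolated linearly between surrounding concentrations. TGI: concentration producing complete growth inhibition.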

Legend:
Experiment in all cases: growth of human tumour cells (NCI), 48 h
SR leukemia = test system: SR leukemia
SK-MEL-2 melanoma = test system: SK-MEL-2 melanoma
OVCAR-3 ovarian = test system: OVCAR-3 ovarian
UACC-257 melanoma = test system: UACC-257 melanoma
MDA-MB-231 breast = test system: MDA-MB-231 breast
SF-268 CNS = test system: SF-268 CNS
NCI/ADR-RES ovarian = test system: NCI/ADR-RES ovarian
HOP-92 NSCLC = test system: HOP-92 NSCLC
OVCAR-4 ovarian = test system: OVCAR-4 ovarian
MCF7 breast = test system: MCF7 breast
HCT-116 colon = test system: HCT-116 colon
BT-549 breast = test system: BT-549 breast
MALME-3M melanoma = test system: MALME-3M melanoma
CAKI-1 renal = test system: CAKI-1 renal
786-0 renal = test system: 786-0 renal
M14 melanoma = test system: M14 melanoma
A549 NSCLC = test system: A549 NSCLC
NCI-H23 lung = test system: NCI-H23 lung
IGROV1 ovarian = test system: IGROV1 ovarian
NCI-H522 lung = test system: NCI-H522 lung
ACHN renal = test system: ACHN renal
SF-539 CNS = test system: SF-539 CNS
COLO 205 colon = test system: COLO 205 colon
OVCAR-8 ovarian = test system: OVCAR-8 ovarian
DU-145 prostate = test system: DU-145 prostate
PC-3 prostate = test system: PC-3 prostate
SK-OV-3 ovarian = test system: SK-OV-3 ovarian
SW-620 colon = test system: SW-620 colon
UO-31 renal = test system: UO-31 renal
K-562 leukemia = test system: K-562 leukemia
HCT-15 colon = test system: HCT-15 colon
CCRF-CEM leukemia = test system: CCRF-CEM leukemia
A498 renal = test system: A498 renal
SK-MEL-5 melanoma = test system: SK-MEL-5 melanoma
NCI-H226 lung = test system: NCI-H226 lung
T-47D breast = test system: T-47D breast
HT29 colon = test system: HT29 colon
MDA-MB-435 = test system: MDA-MB-435
KM12 colon = test system: KM12 colon
OVCAR-5 ovarian = test system: OVCAR-5 ovarian
HL-60(TB) leukemia = test system: HL-60(TB) leukemia
NCI-H460 lung = test system: NCI-H460 lung
TK-10 renal = test system: TK-10 renal
SF-295 CNS = test system: SF-295 CNS
SN12C renal = test system: SN12C renal
MDA-N = test system: MDA-N
HS 578T breast = test system: HS 578T breast
HCC-2998 colon = test system: HCC-2998 colon
UACC-62 melanoma = test system: UACC-62 melanoma
MOLT-4 leukemia = test system: MOLT-4 leukemia
SK-MEL-28 melanoma = test system: SK-MEL-28 melanoma
U251 CNS = test system: U251 CNS
RPMI-8226 leukemia = test system: RPMI-8226 leukemia
HOP-62 NSCLC = test system: HOP-62 NSCLC
RXF 393 renal = test system: RXF 393 renal
SNB-75 CNS = test system: SNB-75 CNS
EKVX NSCLC = test system: EKVX NSCLC
SNB-19 CNS = test system: SNB-19 CNS
LOX IMVI melanoma = test system: LOX IMVI melanoma

In the case of `O=C(O)c1cc(C(=O)O)nc(C(=O)O)c1`, the TGI (SR leukemia) is reported as > 100 µM, the TGI (SK-MEL-2 melanoma) is reported as > 100 µM and the TGI (OVCAR-3 ovarian) is reported as > 100 µM. For the same compound, the TGI (UACC-257 melanoma) was > 100 µM, the TGI (MDA-MB-231 breast) was > 100 µM and the TGI (SF-268 CNS) was > 100 µM. For the same compound, the TGI (NCI/ADR-RES ovarian) was > 100 µM, the TGI (HOP-92 NSCLC) was > 100 µM and the TGI (OVCAR-4 ovarian) was > 100 µM. For the same compound, the TGI (MCF7 breast) was > 100 µM, the TGI (HCT-116 colon) was > 100 µM and the TGI (BT-549 breast) was > 100 µM. For the same compound, the TGI (MALME-3M melanoma) was > 100 µM, the TGI (CAKI-1 renal) was > 100 µM and the TGI (786-0 renal) was > 100 µM. The TGI (M14 melanoma) was > 100 µM, the TGI (A549 NSCLC) was > 100 µM and the TGI (NCI-H23 lung) was > 100 µM. The TGI (IGROV1 ovarian) was > 100 µM, the TGI (NCI-H522 lung) was > 100 µM and the TGI (ACHN renal) was > 100 µM. The TGI (SF-539 CNS) was > 100 µM, the TGI (COLO 205 colon) was > 100 µM and the TGI (OVCAR-8 ovarian) was > 100 µM. For the same compound, the TGI (DU-145 prostate) was > 100 µM, the TGI (PC-3 prostate) was > 100 µM and the TGI (SK-OV-3 ovarian) was > 100 µM. The TGI (SW-620 colon) was > 100 µM, the TGI (UO-31 renal) was > 100 µM and the TGI (K-562 leukemia) was > 100 µM. The TGI (HCT-15 colon) was > 100 µM, the TGI (CCRF-CEM leukemia) was > 100 µM and the TGI (A498 renal) was > 100 µM. The TGI (SK-MEL-5 melanoma) was > 100 µM, the TGI (NCI-H226 lung) was > 100 µM and the TGI (T-47D breast) was > 100 µM. For the same compound, the TGI (HT29 colon) was > 100 µM, the TGI (MDA-MB-435) was > 100 µM and the TGI (KM12 colon) was > 100 µM. The TGI (OVCAR-5 ovarian) was > 100 µM, the TGI (HL-60(TB) leukemia) was > 100 µM and the TGI (NCI-H460 lung) was > 100 µM. For the same compound, the TGI (TK-10 renal) was > 100 µM, the TGI (SF-295 CNS) was > 100 µM and the TGI (SN12C renal) was > 100 µM. The TGI (MDA-N) was > 100 µM, the TGI (HS 578T breast) was > 100 µM and the TGI (HCC-2998 colon) was > 100 µM. For the same compound, the TGI (UACC-62 melanoma) was > 100 µM, the TGI (MOLT-4 leukemia) was > 100 µM and the TGI (SK-MEL-28 melanoma) was > 100 µM. The TGI (U251 CNS) was > 100 µM, the TGI (RPMI-8226 leukemia) was > 100 µM and the TGI (HOP-62 NSCLC) was > 100 µM. For the same compound, the TGI (RXF 393 renal) was > 100 µM, the TGI (SNB-75 CNS) was > 100 µM and the TGI (EKVX NSCLC) was > 100 µM. The TGI (SNB-19 CNS) was > 100 µM and the TGI (LOX IMVI melanoma) was > 100 µM.
With `COc1ccc(SCc2cc(OC)c(OC)c(OC)c2)cc1OC` the TGI (SR leukemia) was > 100 µM, the TGI (SK-MEL-2 melanoma) was > 69.1 µM and the TGI (OVCAR-3 ovarian) was > 100 µM. For the same compound, the TGI (UACC-257 melanoma) was > 100 µM, the TGI (MDA-MB-231 breast) was > 100 µM and the TGI (SF-268 CNS) was > 100 µM. The TGI (NCI/ADR-RES ovarian) was > 100 µM, the TGI (HOP-92 NSCLC) was 83.3 µM and the TGI (OVCAR-4 ovarian) was > 100 µM. For the same compound, the TGI (MCF7 breast) was > 100 µM, the TGI (HCT-116 colon) was > 100 µM and the TGI (BT-549 breast) was > 100 µM. For the same compound, the TGI (MALME-3M melanoma) was > 100 µM, the TGI (CAKI-1 renal) was > 100 µM and the TGI (786-0 renal) was > 100 µM. For the same compound, the TGI (M14 melanoma) was > 100 µM, the TGI (A549 NSCLC) was > 100 µM and the TGI (NCI-H23 lung) was > 100 µM. The TGI (IGROV1 ovarian) was > 100 µM, the TGI (NCI-H522 lung) was > 100 µM and the TGI (ACHN renal) was > 100 µM. For the same compound, the TGI (SF-539 CNS) was > 100 µM, the TGI (COLO 205 colon) was > 100 µM and the TGI (OVCAR-8 ovarian) was > 100 µM. For the same compound, the TGI (DU-145 prostate) was > 100 µM, the TGI (PC-3 prostate) was > 100 µM and the TGI (SK-OV-3 ovarian) was > 90.1 µM. The TGI (SW-620 colon) was > 100 µM, the TGI (UO-31 renal) was > 100 µM and the TGI (K-562 leukemia) was > 100 µM. For the same compound, the TGI (HCT-15 colon) was > 100 µM, the TGI (CCRF-CEM leukemia) was > 100 µM and the TGI (A498 renal) was > 86.4 µM. The TGI (SK-MEL-5 melanoma) was 34.7 µM, the TGI (NCI-H226 lung) was > 100 µM and the TGI (T-47D breast) was > 31.6 µM. For the same compound, the TGI (HT29 colon) was > 100 µM, the TGI (MDA-MB-435) was 63.1 µM and the TGI (KM12 colon) was > 100 µM. The TGI (OVCAR-5 ovarian) was > 100 µM, the TGI (HL-60(TB) leukemia) was > 100 µM and the TGI (NCI-H460 lung) was > 100 µM. For the same compound, the TGI (TK-10 renal) was > 100 µM, the TGI (SF-295 CNS) was > 100 µM and the TGI (SN12C renal) was > 100 µM. For the same compound, the TGI (MDA-N) was > 100 µM, the TGI (HS 578T breast) was > 100 µM and the TGI (HCC-2998 colon) was > 100 µM. The TGI (UACC-62 melanoma) was > 100 µM, the TGI (MOLT-4 leukemia) was > 100 µM and the TGI (SK-MEL-28 melanoma) was > 100 µM. For the same compound, the TGI (U251 CNS) was > 100 µM, the TGI (RPMI-8226 leukemia) was > 100 µM and the TGI (HOP-62 NSCLC) was > 100 µM. For the same compound, the TGI (RXF 393 renal) was > 100 µM, the TGI (SNB-75 CNS) was > 70.5 µM and the TGI (EKVX NSCLC) was > 100 µM. For the same compound, the TGI (SNB-19 CNS) was > 100 µM and the TGI (LOX IMVI melanoma) was > 100 µM.
With `CC(C)=CCc1c(O)c(CC=C(C)C)c2oc(-c3ccc(O)cc3O)c(CC=C(C)C)c(=O)c2c1O` the TGI (SR leukemia) was 9.88 µM, the TGI (SK-MEL-2 melanoma) was 12.8 µM and the TGI (OVCAR-3 ovarian) was 19.6 µM. The TGI (UACC-257 melanoma) was 25.6 µM, the TGI (MDA-MB-231 breast) was 27.6 µM and the TGI (SF-268 CNS) was > 53.2 µM. For the same compound, the TGI (NCI/ADR-RES ovarian) was 53.4 µM, the TGI (HOP-92 NSCLC) was 23 µM and the TGI (OVCAR-4 ovarian) was 18.1 µM. For the same compound, the TGI (MCF7 breast) was 18.3 µM, the TGI (HCT-116 colon) was 17 µM and the TGI (BT-549 breast) was 21.6 µM. It also gave a TGI (MALME-3M melanoma) of 33.4 µM, a TGI (CAKI-1 renal) of 25.4 µM and a TGI (786-0 renal) of 21.4 µM. The TGI (M14 melanoma) was 22.5 µM, the TGI (A549 NSCLC) was 24.2 µM and the TGI (NCI-H23 lung) was 22 µM. For the same compound, the TGI (IGROV1 ovarian) was 23.6 µM, the TGI (NCI-H522 lung) was 24.9 µM and the TGI (ACHN renal) was 20.9 µM. The TGI (SF-539 CNS) was 32.7 µM, the TGI (COLO 205 colon) was > 59.5 µM and the TGI (OVCAR-8 ovarian) was 19.7 µM. It also gave a TGI (DU-145 prostate) of 25.2 µM, a TGI (PC-3 prostate) of 18.4 µM and a TGI (SK-OV-3 ovarian) of 26.2 µM. The TGI (SW-620 colon) was 23.3 µM, the TGI (UO-31 renal) was 21.1 µM and the TGI (K-562 leukemia) was 27.4 µM. It also gave a TGI (HCT-15 colon) of 23.8 µM, a TGI (CCRF-CEM leukemia) of 5.83 µM and a TGI (A498 renal) of 27.3 µM. For the same compound, the TGI (SK-MEL-5 melanoma) was 23 µM, the TGI (NCI-H226 lung) was 47.6 µM and the TGI (T-47D breast) was 12.8 µM. The TGI (HT29 colon) was 22.8 µM, the TGI (MDA-MB-435) was 16.7 µM and the TGI (KM12 colon) was 16.7 µM. It also gave a TGI (OVCAR-5 ovarian) of 28.3 µM, a TGI (HL-60(TB) leukemia) of 21.7 µM and a TGI (NCI-H460 lung) of 17.8 µM. It also gave a TGI (TK-10 renal) of 21.2 µM, a TGI (SF-295 CNS) of 20.3 µM and a TGI (SN12C renal) of 21.1 µM. For the same compound, the TGI (MDA-N) was 20.4 µM, the TGI (HS 578T breast) was 45.6 µM and the TGI (HCC-2998 colon) was 11.7 µM. For the same compound, the TGI (UACC-62 melanoma) was 20.3 µM, the TGI (MOLT-4 leukemia) was 14.6 µM and the TGI (SK-MEL-28 melanoma) was 26.6 µM. It also gave a TGI (U251 CNS) of 22.8 µM, a TGI (RPMI-8226 leukemia) of 10.9 µM and a TGI (HOP-62 NSCLC) of 23.4 µM. For the same compound, the TGI (RXF 393 renal) was 14.6 µM, the TGI (SNB-75 CNS) was 22.7 µM and the TGI (EKVX NSCLC) was 27.9 µM. The TGI (SNB-19 CNS) was 25.6 µM and the TGI (LOX IMVI melanoma) was 22.5 µM.
